# Values of other authors, collected in US20220151997A1, “USE OF EPALRESTAT IN PREPARATION OF PANCREATIC CANCER DRUGS AND METHOD FOR VERIFYING INHIBITION EFFECT OF EPALRESTAT ON SECRETION OF EXOSOMES FROM PANCREATIC CANCER CELLS” (Affiliated Hospital of Nantong University, priority 2019, published 2022).
# Test system: prostate cancer cells
# Conditions: by inhibiting the Ras signaling pathway and hnRNP H1 expression
compound,measurement,value
CCCC[C@@H](C)/C=C(C)/C=C(\C)C(=O)NC1=C[C@@](O)(/C=C/C=C/C=C/C(=O)NC2=C(O)CCC2=O)[C@@H]2O[C@@H]2C1=O [Manumycin A],production and secretion of the exosomes,inhibits
